The subject of experiment [1] is HepG2. Briefly: cells. To be noted: Homo sapiens, HepG2, 24 h.
Description: Antiproliferative activity against human HepG2 cells after 24 hrs by MTT assay
The next experiment relates to HeLa. Briefly: cells. The settings on record: Homo sapiens, 24 h.
A short description of a further experiment: cells. To be noted: Homo sapiens, SW 1116, 24 h.
Experiment [2] has as its target Methionine aminopeptidase 2 (Homo sapiens, UniProt P50579). Briefly: Inhibition of MetAP2 after 4 hrs.
The test system of the next experiment is BGC-823. Briefly: cells. The settings on record: Homo sapiens, BGC-823, 24 h.
The subject of experiment [3] is HepG2. As to the kind of experiment: Induction of apoptosis in human HepG2 cells assessed as early apoptotic cells at 2 uM after 24 hrs using annexin V-FITC and propidium iodide staining by flow cytometry analysis (Rvb =0.02 %). The experiment is classed as functional. (A flow cytometer gives signals particle by particle.)
The subject of experiment [4] is HepG2. As to the kind of experiment: Induction of apoptosis in human HepG2 cells assessed as viable cells at 2 uM after 24 hrs using annexin V-FITC and propidium iodide staining by flow cytometry analysis (Rvb =96.26 %). The experiment is classed as functional. To be noted: HepG2, 24 h, read-out: Activity.
In experiment [5] the test system is HepG2. Briefly: Induction of apoptosis in human HepG2 cells assessed as late apoptotic/necrotic cells at 0.5 uM after 24 hrs using annexin V-FITC and propidium iodide staining by flow cytometry analysis (Rvb =0.02 %). It is filed as functional.
For experiment [6], the system named is HepG2. Briefly: Induction of apoptosis in human HepG2 cells assessed as viable cells at 0.5 uM after 24 hrs using annexin V-FITC and propidium iodide staining by flow cytometry analysis (Rvb =96.26 %). It is filed as functional. To be noted: HepG2, 24 h, read-out: Activity.
For experiment [7], the system named is HepG2. As to the kind of experiment: Induction of apoptosis in human HepG2 cells assessed as late pre-necrotic cells at 2 uM after 24 hrs using annexin V-FITC and propidium iodide staining by flow cytometry analysis (Rvb =0.02 %). It is filed as functional.
Experiment [8] relates to HepG2. As to the kind of experiment: Induction of apoptosis in human HepG2 cells assessed as late apoptotic/necrotic cells at 4 uM after 24 hrs using annexin V-FITC and propidium iodide staining by flow cytometry analysis (Rvb =0.02 %). It is filed as functional.
For experiment [9], the system named is HepG2. As to the kind of experiment: Induction of apoptosis in human HepG2 cells assessed as viable cells at 1 uM after 24 hrs using annexin V-FITC and propidium iodide staining by flow cytometry analysis (Rvb =96.26 %). It is filed as functional. The settings on record: HepG2, 24 h, read-out: Activity.
The test system of experiment [10] is HepG2. Briefly: Induction of apoptosis in human HepG2 cells assessed as late pre-necrotic cells at 0.5 uM after 24 hrs using annexin V-FITC and propidium iodide staining by flow cytometry analysis (Rvb =0.02 %). It is filed as functional.
The test system of experiment [11] is HepG2. Briefly: Induction of apoptosis in human HepG2 cells assessed as late pre-necrotic cells at 4 uM after 24 hrs using annexin V-FITC and propidium iodide staining by flow cytometry analysis (Rvb =0.02 %). It is filed as functional.
In experiment [12] the test system is HepG2. Briefly: Induction of apoptosis in human HepG2 cells assessed as late pre-necrotic cells at 1 uM after 24 hrs using annexin V-FITC and propidium iodide staining by flow cytometry analysis (Rvb =0.02 %). The experiment is classed as functional.
Experiment [13] concerns HepG2. As to the kind of experiment: Induction of apoptosis in human HepG2 cells assessed as early apoptotic cells at 0.5 uM after 24 hrs using annexin V-FITC and propidium iodide staining by flow cytometry analysis (Rvb =0.02 %). It is filed as functional.
In experiment [14] the test system is HepG2. As to the kind of experiment: Induction of apoptosis in human HepG2 cells assessed as late apoptotic/necrotic cells at 2 uM after 24 hrs using annexin V-FITC and propidium iodide staining by flow cytometry analysis (Rvb =0.02 %). The experiment is classed as functional.
Experiment [15] concerns HepG2. Briefly: Induction of apoptosis in human HepG2 cells after 24 hrs using annexin V-FITC and propidium iodide staining by flow cytometry analysis. It is filed as functional, cell-based.
The subject of experiment [16] is HepG2. As to the kind of experiment: Induction of apoptosis in human HepG2 cells assessed as early apoptotic cells at 1 uM after 24 hrs using annexin V-FITC and propidium iodide staining by flow cytometry analysis (Rvb =0.02 %). It is filed as functional.
Experiment [17] deals with HepG2. As to the kind of experiment: Induction of apoptosis in human HepG2 cells assessed as late apoptotic/necrotic cells at 1 uM after 24 hrs using annexin V-FITC and propidium iodide staining by flow cytometry analysis (Rvb =0.02 %). The experiment is classed as functional.
Experiment [18] relates to HepG2. As to the kind of experiment: Induction of apoptosis in human HepG2 cells assessed as early apoptotic cells at 4 uM after 24 hrs using annexin V-FITC and propidium iodide staining by flow cytometry analysis (Rvb =0.02 %). The experiment is classed as functional.
The subject of experiment [19] is HepG2. As to the kind of experiment: Induction of apoptosis in human HepG2 cells assessed as viable cells at 4 uM after 24 hrs using annexin V-FITC and propidium iodide staining by flow cytometry analysis (Rvb =96.26 %). The experiment is classed as functional. To be noted: HepG2, 24 h, read-out: Activity.

pIC50: −log10 of the molar value. A value given as a limit tells only on which side of the number the result lay.

As a reminder, the pIC50 is the IC50 on a negative log10 scale, so that one unit is a factor of ten. Higher therefore signals a low IC50.

Sequence of Methionine aminopeptidase 2 (P50579 whole entry): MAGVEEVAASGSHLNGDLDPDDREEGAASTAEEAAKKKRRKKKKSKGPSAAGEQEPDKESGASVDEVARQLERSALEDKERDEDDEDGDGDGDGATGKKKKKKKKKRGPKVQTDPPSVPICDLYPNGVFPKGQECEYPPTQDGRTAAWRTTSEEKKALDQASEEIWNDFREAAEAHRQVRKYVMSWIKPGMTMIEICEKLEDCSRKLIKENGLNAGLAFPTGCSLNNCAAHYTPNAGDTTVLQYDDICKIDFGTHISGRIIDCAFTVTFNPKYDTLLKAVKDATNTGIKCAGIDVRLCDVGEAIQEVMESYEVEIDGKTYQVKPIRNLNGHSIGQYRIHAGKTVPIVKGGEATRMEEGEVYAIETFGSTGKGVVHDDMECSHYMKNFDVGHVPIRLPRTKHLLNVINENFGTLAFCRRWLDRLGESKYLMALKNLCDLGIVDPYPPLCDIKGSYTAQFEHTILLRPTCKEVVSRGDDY
Description for BGC-823: Antiproliferative activity against human BGC823 cells after 24 hrs by MTT assay
Description for HeLa: Antiproliferative activity against human HeLa cells after 24 hrs by MTT assay

For `CO[C@@H]1[C@H](OC(=O)NC(=O)CCl)CC[C@]2(CO2)[C@H]1[C@@]1(C)O[C@@H]1CC=C(C)C` [O-CHLOROACETYLCARBAMOYLFUMAGILLOL], the pIC50 in the experiment with HepG2 [1] was 6.07; in the experiment on HeLa, 5.69; in “cells” it was 5.26; in experiment [2], 5.98; in the experiment with BGC-823, 5.83.

With `O=[N+]([O-])c1cccc(CSc2nnc(-c3ccc4c(c3)OCCO4)n2-c2ccccc2)c1`, the pIC50 in the experiment with HepG2 [1] was 4.31; in the experiment on HeLa, 4.34; in the experiment “cells”, 5.12; in the experiment with BGC-823, 4.52.

Regarding `Fc1cccc(F)c1CSc1nnc(-c2ccc3c(c2)OCCO3)n1-c1ccccc1`, the pIC50 with HepG2 [1] is 5.68; with HeLa it was 4.45; in “cells” it was 5.05; in the experiment with BGC-823, 4.07.

Consider `Cc1ccc(CSc2nnc(-c3ccc4c(c3)OCCO4)n2-c2ccccc2)cc1`, for which the pIC50 in the experiment with HepG2 [1] was 4.25; in the experiment on HeLa, 4.30; in “cells”, 4.79; in the experiment with BGC-823, 4.35.

In the case of `Brc1ccc(CSc2nnc(-c3ccc4c(c3)OCCO4)n2-c2ccccc2)cc1`, the pIC50 in the experiment with HepG2 [1] is 5.10; with HeLa, 4.26; in the experiment “cells”, 5.24; with BGC-823, 4.47.

In the case of `COc1cccc(CSc2nnc(-c3ccc4c(c3)OCCO4)n2-c2ccccc2)c1`, the pIC50 was 4.45 in the experiment with HepG2 [1], under 4.00 in the experiment on HeLa, 5.00 in the experiment “cells” and under 4.00 in the experiment on BGC-823.

With `Fc1ccc(CSc2nnc(-c3ccc4c(c3)OCCO4)n2-c2ccccc2)cc1`, the pIC50 is 5.99 in the experiment with HepG2 [1], 4.33 in the experiment on HeLa, 4.68 in “cells” and under 4.00 with BGC-823.

For the molecule `Clc1cccc(CSc2nnc(-c3ccc4c(c3)OCCO4)n2-c2ccccc2)c1`, the pIC50 was 5.62 in the experiment with HepG2 [1], 4.82 in the experiment on HeLa, 4.97 in the experiment “cells” and 4.29 in the experiment on BGC-823.

For `Clc1ccc(CSc2nnc(-c3ccc4c(c3)OCCO4)n2-c2ccccc2)cc1`, the pIC50 was 5.45 in the experiment on HepG2 [1], 4.10 in the experiment on HeLa, 5.08 in the experiment “cells” and 4.10 with BGC-823.

On to `Brc1cccc(CSc2nnc(-c3ccc4c(c3)OCCO4)n2-c2ccccc2)c1`, for which the pIC50 in the experiment with HepG2 [1] was 5.28; in the experiment with HeLa, 4.35; in the experiment “cells”, 4.58; with BGC-823, 4.18.

Regarding `Fc1ccc(CSc2nnc(-c3ccc4c(c3)OCCO4)n2-c2ccccc2)c(F)c1`, the pIC50 in the experiment on HepG2 [1] is 5.71; in the experiment on HeLa, 4.73; in the experiment “cells”, 5.11; with BGC-823, under 4.00.

As for `Brc1ccccc1CSc1nnc(-c2ccc3c(c2)OCCO3)n1-c1ccccc1`, the pIC50 is 5.33 with HepG2 [1], under 4.00 in the experiment on HeLa, 5.13 in the experiment “cells” and under 4.00 in the experiment on BGC-823.

`O=[N+]([O-])c1ccc(CSc2nnc(-c3ccc4c(c3)OCCO4)n2-c2ccccc2)cc1`: the negative-log IC50 (pIC50) in the experiment with HepG2 [1] was 4.86; with HeLa it was 4.44; in “cells”, 4.86; in the experiment with BGC-823 it was 4.31.

`Cc1ccccc1CSc1nnc(-c2ccc3c(c2)OCCO3)n1-c1ccccc1`: the pIC50 is 4.69 in the experiment with HepG2 [1], 4.44 in the experiment on HeLa, 4.90 in the experiment “cells” and under 4.00 with BGC-823.

With `c1ccc(CSc2nnc(-c3ccc4c(c3)OCCO4)n2-c2ccccc2)cc1`, the pIC50 in the experiment with HepG2 [1] was 5.22; in the experiment with HeLa, 4.48; in the experiment “cells” it was 5.10; with BGC-823 it was 4.13.

On to `Sc1nnc(-c2ccc3c(c2)OCCO3)n1-c1ccccc1`, for which the pIC50 with HepG2 [1] is 4.22; with HeLa it was 4.28; in “cells” it was 4.42; with BGC-823, 4.33.

With `Clc1ccccc1CSc1nnc(-c2ccc3c(c2)OCCO3)n1-c1ccccc1`, the pIC50 in the experiment with HepG2 [1] is 6.01; with HeLa it was 4.54; in the experiment “cells” it was 5.01; in the experiment on BGC-823, 4.76.

As for `O=[N+]([O-])c1ccccc1CSc1nnc(-c2ccc3c(c2)OCCO3)n1-c1ccccc1`, the negative-log IC50 (pIC50) in the experiment on HepG2 [1] is 4.92; in the experiment on HeLa, 4.16; in “cells” it was 5.08; with BGC-823, 4.58.

As for `Fc1ccccc1CSc1nnc(-c2ccc3c(c2)OCCO3)n1-c1ccccc1`, the pIC50 is 6.09 in the experiment with HepG2 [1], 4.62 with HeLa, 4.87 in “cells” and 4.73 in the experiment on BGC-823. The Activity with HepG2 [3] is 4.03%; in the experiment with HepG2 [5], 8%; with HepG2 [7], 27.21%; in the experiment with HepG2 [8], 23.25%; in the experiment on HepG2 [10] it was 32.8%; in the experiment on HepG2 [11], 26.23%. The Activity in the experiment on HepG2 [12] is 24.49%; with HepG2 [13], 0.8%; with HepG2 [14] it was 18%; in the experiment on HepG2 [15], “Dose-dependent effect”; in the experiment on HepG2 [16] it was 3.49%; in the experiment with HepG2 [17] it was 13.17%. Also, the Activity in the experiment on HepG2 [18] is 11%. Also, in the experiment on HepG2 [4], the viability at 2 µM is 50.8%. Also, the viability at 0.5 µM in the experiment with HepG2 [6] was found to be 58.3%. Besides, the viability at 1 µM with HepG2 [9] stood at 58.9%. The viability at 4 µM in the experiment on HepG2 [19] was determined as 39.5%.

The record behind these values is ChEMBL document CHEMBL1828534, “Synthesis and antitumor activity of 1,2,4-triazoles having 1,4-benzodioxan fragment as a novel class of potent methionine aminopeptidase type II inhibitors” (Bioorg Med Chem, 2011).
